The results in this text go back to ChEMBL document CHEMBL4819124, “Folate-targeted verrucarin A reduces the number of activated macrophages in a mouse model of acute peritonitis” (Bioorg Med Chem Lett, 2021).

Assay [1] deals with Folate receptor alpha (Homo sapiens, UniProt P15328). Description: Displacement of [3H]-folic acid from FRalpha (unknown origin) expressed in human KB cells after 1 hr. It is filed as cell-based. A general note: Loss of bound radioactivity is the signal in a displacement assay; it reports binding, not function.
Folate receptor alpha, sequence (P15328 whole entry): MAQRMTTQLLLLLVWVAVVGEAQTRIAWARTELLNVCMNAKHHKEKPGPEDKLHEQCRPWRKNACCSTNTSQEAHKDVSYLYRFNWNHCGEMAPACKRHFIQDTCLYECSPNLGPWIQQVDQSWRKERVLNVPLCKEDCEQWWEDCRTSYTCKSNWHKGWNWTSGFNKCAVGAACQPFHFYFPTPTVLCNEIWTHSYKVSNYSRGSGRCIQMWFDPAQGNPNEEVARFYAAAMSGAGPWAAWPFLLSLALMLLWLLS
Assay [2] has as its target Folate receptor beta (Homo sapiens, UniProt P14207). As to the kind of experiment: Displacement of [3H]-folic acid from FRbeta (unknown origin) expressed in mouse RAW264.7 cells after 1 hr. It is filed as cell-based.
Assay [3] relates to KB. As to the kind of experiment: Cytotoxicity against human KB cells assessed as reduction in cell viability treated for 1 hr followed by 72 hrs incubation in drug free media by [3H]-thymidine incorporation assay. Type of assay: cell-based.
The test system of assay [4] is RAW264.7. Description: Cytotoxicity against mouse RAW264.7 cells assessed as reduction in cell viability treated for 1 hr followed by 72 hrs incubation in drug free media by [3H]-thymidine incorporation assay. Type of assay: functional, cell-based. (Incorporation of labelled thymidine or its analogues reports DNA synthesis.)
Assay [5] has as its system Mus musculus. As to the kind of experiment: Antiinflammatory activity against mouse model of thioglycolate induced peritonitis assessed as decrease in FR+ macrophages in peritoneal fluid at 1000 nmol/kg, ip dosed twice everyday measured after 3 days by Alexafluor-488 goat anti-rabbitIgG staining based flow cytometric analysis relative to control. The conditions noted are these: time 3.0 day. It is filed as functional, organism-based.

For assay [6], the system named is Mus musculus. Description: Antiinflammatory activity against mouse model of thioglycolate induced peritonitis assessed as decrease in total macrophage population in peritoneal fluid at 1000 nmol/kg, ip dosed twice everyday measured after 3 days by staining based flow cytometric analysis relative to control. Type of assay: functional, organism-based. The conditions noted are these: time 3.0 day. For orientation: Flow cytometry measures light scatter and fluorescence of single cells or particles in a stream.

Assay [7] concerns Mus musculus. As to the kind of experiment: Antiinflammatory activity against mouse model of thioglycolate induced peritonitis assessed as effect on lymphocytes in peritoneal fluid at 1000 nmol/kg, ip dosed twice everyday measured after 3 days by staining based flow cytometric analysis relative to control. It is filed as functional, organism-based. The conditions noted are these: time 3.0 day.

Assay [8] relates to Mus musculus. As to the kind of experiment: Antiinflammatory activity against mouse model of thioglycolate induced peritonitis assessed as effect on granulocytes in peritoneal fluid at 1000 nmol/kg, ip dosed twice everyday measured after 3 days by staining based flow cytometric analysis relative to control. Type of assay: functional, organism-based. As to conditions: time 3.0 day.

Active and inactive are the calls of the source. The rule behind the calls is not given here. *1 amine or outer side, *2 acyl side, *3 side chain or, on linkers, in order; H or OH if unused. Where a SMILES comes first, the peptide text is derived from it. The star is where a group is joined. Pteroyl = Nc1nc2ncc(CNc3ccc(C(=O)*)cc3)nc2c(=O)[nH]1; γGlu = O=C(O)[C@H](CCC(=O)[*:2])N[*:1]

Folate receptor beta, sequence (P14207 whole entry): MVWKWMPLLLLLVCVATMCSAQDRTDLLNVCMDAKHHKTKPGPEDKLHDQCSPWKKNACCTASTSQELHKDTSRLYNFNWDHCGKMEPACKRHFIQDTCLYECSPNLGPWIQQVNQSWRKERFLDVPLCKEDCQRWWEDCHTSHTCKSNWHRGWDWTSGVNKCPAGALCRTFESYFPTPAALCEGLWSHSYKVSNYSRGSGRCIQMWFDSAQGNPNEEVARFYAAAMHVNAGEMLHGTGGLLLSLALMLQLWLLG

One may read the IC50 as the concentration needed to halve the response being measured. For `N=C(N)NCCC[C@H](NC(=O)[C@H](CC(=O)O)NC(=O)CC[C@H](NC(=O)c1ccc(NCc2cnc3nc(N)[nH]c(=O)c3n2)cc1)C(=O)O)C(=O)N[C@@H](CC(=O)O)C(=O)N[C@@H](CC(=O)O)C(=O)N[C@@H](CS)C(=O)O` ({Pteroyl-γGlu}-DRDDC-OH), the values for the IC50 in assay [1] and in assay [2] were 1.4 nM and 0.56 nM, respectively.

Turning to `CC1=C[C@H]2O[C@@H]3C[C@H]4OC(=O)/C=C\C=C\C(=O)OCC[C@@H](C)[C@H](OC(=O)OCCSSC[C@H](NC(=O)[C@H](CC(=O)O)NC(=O)[C@H](CC(=O)O)NC(=O)[C@H](CCCNC(=N)N)NC(=O)[C@H](CC(=O)O)NC(=O)CC[C@H](NC(=O)c5ccc(NCc6cnc7nc(N)[nH]c(=O)c7n6)cc5)C(=O)O)C(=O)O)C(=O)OC[C@@]2(CC1)[C@]4(C)[C@]31CO1`, the values for the IC50 in assay [3] and in assay [4] were 525 nM and 8.5 nM, respectively. Also, the result in assay [5] and in assay [6] was Active. Moreover, the outcome in assay [7] and in assay [8] was inactive.
